Reference: US20120328525A1, “NANOPARTICLE COMPOSITIONS AND COMPONENTS THEREOF” (priority 2011, published 2012)

System: axillary sweating
Assay: Placebo-controlled blinded clinical study, gravimetric sweat measurement (Examples 5-10)
Assay type: in vivo, human
Conditions: for percent of subjects with at least a 30% reduction in sweat production vs Baseline / average reduction in sweat production by gravimetric sweat measurement: two weeks after single topical treatment; for average reduction in sweat production by gravimetric sweat measurement: 0.3 mL/axilla; for greater reduction in sweat production than control (placebo) group / greater effectiveness in reducing sweat production than placebo (responder rate): two weeks after treatment; for greater reduction in sweat production than control (placebo) group: placebo 53 mg; for greater effectiveness in reducing sweat production than placebo (responder rate): placebo 29% responders
From the text: (§1) The purpose of the study was to determine if Emulsion H is biologically active in reducing sweating. […] Some subjects received treatment with the potentially biologically active formulation and some subjects received treatment with a placebo, i.e. water. Neither the subject nor the investigator knew which treatment the subject was receiving.
Two weeks after a single treatment, subjects were re-assessed by gravimetric sweat measurement to determine the degree of sweat reduction. A comparison of post-treatment sweat production between the treatment groups was made to determine the degree of sweat reduction by the potentially biologically active formulation.
The sweat production of the subject is measured gravimetrically by the following procedure: • The subject was placed in a room with relatively constant temperature and humidity for at least 30 min. • The subject was placed in a semi-reclining position with the axilla fully exposed and the arm resting comfortably above the head. • The subject's axilla was dried gently with a cotton gauze pad. • The investigator used a forceps to place one filter paper (90 mm diameter) on a balance sensitive to 0.1 mg and recorded its weight. • The investigator used a forceps to place the measured filter paper on the axilla, covered it with plastic and taped the edges of the bag against the subject's skin with hypoallergenic tape to form a seal around the plastic bag. • After 5 minutes, the investigator gently removed the tape and plastic from the subject's axilla and then, using forceps, immediately placed the filter paper onto the scale to record its weight. The scale was then dried and zero balanced. • This measurement was then repeated as described above with the other axilla.
If the subject was eligible for treatment on this basis, the subject was then treated. For treatment, one of the study preparations (0.3 mL/axilla) was applied topically with a gloved finger by the investigator to the subject's skin of the axilla. Emulsion H contained 19.2 mg Labrafac Lipophile WL 1349 and 28.8 mg Polysorbate 80, NF, in addition to 0.9% Sodium Chloride Irrigation, USP, and Gelatin Phosphate Buffer. The average diameter (e.g., particle size) of nanoparticles contained in the Emusion H empty nanoparticle composition was approximately 80.1 nm. The preparation was administered in small increments to avoid run-off. The liquid was rubbed-in until vanished.
The subject was scheduled for a follow-up office visit two weeks after the treatment. At the follow-up office visit, the subject was questioned as to their compliance with the instructions regarding which medications not to use between treatment and the two week follow-up office visit. If the subject was non-compliant, the subject was disqualified from the study. If the subject was compliant, the subject was re-assessed using the gravimetric sweat measurement procedure.
as §1, with “V” for “H”
If the subject was eligible for treatment on this basis, the subject was then treated. For treatment, one of the study preparations (0.3 mL/axilla) was applied topically with a gloved finger by the investigator to the subject's skin of the axilla. Emulsion V contained Emulsifying Wax, Gelatin Phosphate Buffer Solution, Isopropyl Myristate, Labrafac Lipophile, Methylparaben, Mineral Oil Heavy Viscosity Range, Polysorbate 80, Propylparaben, Purified Water, Sodium Chloride Injection, and White Petrolatum. All ingredients are either NF or USP grade. The average diameter (e.g., particle size) of nanoparticles contained in the Emusion V empty nanoparticle composition was approximately 77.1 nm. The preparation was administered in small increments to avoid run-off. […]

CCCOC(=O)c1ccc(O)cc1 [Propylparaben]
percent of subjects with at least a 30% reduction in sweat production vs Baseline: 70%
average reduction in sweat production by gravimetric sweat measurement: 177 mg
greater reduction in sweat production than control (placebo) group: 337%
greater effectiveness in reducing sweat production than placebo (responder rate): 245%

CCCCCCCCCCCCCC(=O)OC(C)C [Isopropyl Myristate]
percent of subjects with at least a 30% reduction in sweat production vs Baseline: 55%
average reduction in sweat production by gravimetric sweat measurement: 103 mg
greater reduction in sweat production than control (placebo) group: 195%
greater effectiveness in reducing sweat production than placebo (responder rate): 191%

Polysorbate 80
percent of subjects with at least a 30% reduction in sweat production vs Baseline: 80%
average reduction in sweat production by gravimetric sweat measurement: 159 mg
greater reduction in sweat production than control (placebo) group: 300%
greater effectiveness in reducing sweat production than placebo (responder rate): 280%
